Data published in patent US20240309004A1, “SELECTIVE CYCLIN-DEPENDENT KINASE INHIBITORS AND METHODS OF THERAPEUTIC USE THEREOF” (ViroKyne Therapeutics, LLC, priority 2021, published 2024).
Like-named read-outs stand apart in the source and are kept apart here.

Key:
[1] = Cytotoxicity concurrent with HCMV AD169 primary assay; format: cell-based, human; conditions: human
[2] = test system: HCMV strain AD169; assay: HCMV primary assay (CPE), strain AD169, HFF cells; format: cell-based, Human Cytomegalovirus
Protocol: The antiviral activity of the compound against HCMV in the described Primary assay was measured by treating primary Human foreskin fibroblast (HFF) cells infected with HCMV with a range of compound concentrations—description of methods for this assay can be found in section 1.3.2.1. […] . Additional tested assay parameters in this Primary assay can be found in Table 3.2.1 and include EC90, S150, and S190 values—descriptions of those data points can be found in section 3.2.1.

[3] = Cytotoxicity concurrent with HSV1 E-377 primary assay; format: cell-based; conditions: human
Protocol: (§1) Assays were performed in monolayers as described. […] Toxicity was measured using CTG as above. […] Toxicity was measured using CTG as above.

[4] = test system: HSV1 strain E-377; assay: HSV1 primary assay, strain E-377, HFF cells; format: cell-based, Herpes Simplex Virus 1
Protocol: as §1
(§2) Monolayers of HFF cells were prepared in six-well plates and incubated at 37° C. for 2 d to allow the cells to reach confluency. Media was then aspirated from the wells and 0.2 mL of virus-containing solution was added to each of three wells to yield 20-30 plaques in each well. The virus was allowed to adsorb to the cells for 1 h and the plates were agitated every 15 minutes. Compounds were diluted in assay media consisting of MEM with Earl's salts supplemented with 2% FBS, glutamine, penicillin, and gentamycin. Diluted drug was added to duplicate wells and the plates were incubated for various times, depending on the virus used. For HSV-1 and -2, the monolayers were then stained with 1% crystal violet in 20% methanol and the unbound dye removed by washing with dH20. For all other assays, the cell monolayer was stained with 1% Neutral Red solution for 4-6 h then the stain was aspirated and the cells were washed with PBS.

[5] = test system: VZV strain Ellen; assay: VZV primary assay, strain Ellen, HFF cells; format: cell-based, Varicella Zoster Virus
Protocol: as §1, §2

[6] = Cytotoxicity concurrent with Adenovirus primary assay; format: cell-based; conditions: human
[7] = test system: Epstein-Barr virus Akata strain; assay: Epstein-Barr primary assay, Akata strain, Akata cells; format: cell-based
[8] = test system: Adenovirus Adenoid75 strain; assay: Adenovirus primary assay, Adenoid75 strain, HFF cells; format: cell-based; conditions: unidentified adenovirus
[9] = Cytotoxicity concurrent with HSV2 primary assay; format: cell-based; conditions: human
Protocol: as §1

[10] = Cytotoxicity concurrent with EBV primary assay; conditions: human, Akata cells without virus induction
[11] = test system: HSV2 strain G; assay: HSV2 primary assay, strain G, HFF cells; format: cell-based, herpes simplex virus 2
Protocol: as §1, §2

[12] = Cytotoxicity concurrent with VZV Ellen primary assay; format: cell-based; conditions: human
Protocol: as §1

[13] = Human betaherpesvirus 5, HCMV primary assay, virus strain AD169, HFF cells, read-out: EC50
[14] = Human betaherpesvirus 5, HCMV primary assay, virus strain AD169, HFF cells, read-out: EC90
[15] = Human alphaherpesvirus 1, HSV1 primary assay, strain E-377, HFF cells, read-out: EC50
[16] = Human alphaherpesvirus 1, HSV1 primary assay, strain E-377, HFF cells, read-out: EC90
[17] = Human alphaherpesvirus 3, VZV primary assay, strain Ellen, cell line HFF, read-out: EC50
[18] = Human alphaherpesvirus 3, VZV primary assay, strain Ellen, cell line HFF, read-out: EC90
[19] = human gammaherpesvirus 4, Epstein-Barr primary assay, Akata strain, Akata cells, read-out: EC50
[20] = human gammaherpesvirus 4, Epstein-Barr primary assay, Akata strain, Akata cells, read-out: EC90
[21] = Adenovirus primary assay, HFF cells, Adenoid75 strain, read-out: EC50
[22] = Adenovirus primary assay, HFF cells, Adenoid75 strain, read-out: EC90
[23] = Human alphaherpesvirus 2, HSV2 primary assay, strain G, HFF cells, read-out: EC50
[24] = Human alphaherpesvirus 2, HSV2 primary assay, strain G, HFF cells, read-out: EC90
[25] = Human betaherpesvirus 5, AD169, HFF
[26] = human gammaherpesvirus 4, Akata

Row | Structure (SMILES) | CC50 ([1]; CC50) [µM] | EC50 [2, 13] [µM] | EC90 [2, 14] [µM] | CC50 [3] [µM] | EC50 [4, 15] [µM] | EC90 [4, 16] [µM] | EC50 [5, 17] [µM] | EC90 [5, 18] [µM] | CC50 [6] [µM] | EC50 [7, 19] [µM] | EC90 [7, 20] [µM] | EC50 [8, 21] [µM] | EC90 [8, 22] [µM] | CC50 [9] [µM] | CC50 at 72 h [10] [µM] | EC50 [11, 23] [µM] | EC90 [11, 24] [µM] | CC50 [12] [µM] | further results
1 | CC(C)(C)OC(=O)NCC1CCC(Nc2cc3c4ccc(F)cc4nn3cn2)CC1 (stereo not drawn) [VKT-001] | 6.19 | 2 | 2 |  |  |  |  |  |  |  |  |  |  |  |  |  |  |  | 
2 | NCC1CCC(Nc2cc3c4ccc(F)cc4nn3cn2)CC1 (stereo not drawn) [VKT-002] | 7.42 | 2 | 2 | 20.8 | 10 | 10 | 2 | 2 | 21.2 | 1.78 | 2 | 4.44 | 10 | 24.4 | 6.69 | 10 | 10 | 7.9 | 
3 | CN(C(=O)OC(C)(C)C)C1CCC(Nc2cc3c4ccc(F)cc4nn3cn2)CC1 (stereo not drawn) [VKT-005] | 1.48 | 0.4 | 0.4 | 16 | 10 | 10 | 0.4 | 0.4 | 3.81 | 10 | 10 | 2 | 2 | 7.94 | 39.4 | 2 | 2 | 1.48 | 
4 | CNC1CCC(Nc2cc3c4ccc(F)cc4nn3cn2)CC1 (stereo not drawn) [VKT-006] | 32.5 | 10 | 10 | 38.5 | 10 | 10 | 10 | 10 | 30.5 | 8.32 | 10 | 10 | 10 | 42.8 | 33.5 | 10 | 10 | 27.2 | 
5 | CN(C)CC1CCC(Nc2cc3c4ccc(F)cc4nn3cn2)CC1 (stereo not drawn) [VKT-008] | 38.8 | 10 | 10 | 50 | 50 | 50 | 10 | 10 | 48.6 | 8.16 | 44 | 10 | 10 | 50 | 50 | 50 | 50 | 37.2 | 
6 | CN(c1cc2c3ccc(F)cc3nn2cn1)C1CCC(CNC(=O)OC(C)(C)C)CC1 (stereo not drawn) [VKT-009-A] | 0.57 | 0.4 | 0.4 |  |  |  |  |  |  |  |  |  |  |  |  |  |  |  | 
7 | CN(CC1CCC(N(C)c2cc3c4ccc(F)cc4nn3cn2)CC1)C(=O)OC(C)(C)C (stereo not drawn) [VKT-009-B] | 0.17 | 0.08 | 0.08 |  |  |  |  |  |  |  |  |  |  |  |  |  |  |  | 
8 | CC1CC(Nc2cc3c4ccc(F)cc4nn3cn2)CCO1 (stereo not drawn) [VKT-011] | 38.6 | 10 | 10 |  |  |  |  |  |  |  |  |  |  |  |  |  |  |  | 
9 | CC1CC(Nc2cc3c4ccc(F)cc4nn3cn2)CC(C)O1 (stereo not drawn) [VKT-013] | 48.1 | 10 | 10 |  |  |  |  |  |  |  |  |  |  |  |  |  |  |  | 
10 | Fc1ccc2c(c1)nn1cnc(NC3COCCOC3)cc21 [VKT-016] | 48.5 | 10 | 10 |  |  |  |  |  |  |  |  |  |  |  |  |  |  |  | 
11 | Fc1ccc2c(c1)nn1cnc(NC3CCSCC3)cc21 [VKT-017] | 21.4 | 10 | 10 | 50 | 50 | 50 | 10 | 10 | 46.7 | 23.4 | 41.5 | 10 | 10 | 50 | 50 | 50 | 50 | 37.1 | 
12 | CN1CCC(Nc2cc3c4ccc(F)cc4nn3cn2)CC1 [VKT-023] | 46 |  |  | 50 |  |  |  |  | 50 |  |  |  |  | 50 | 50 |  |  | 44.7 | EC50 ([4]; Human alphaherpesvirus 1, HFF): 50 µM; EC90 ([4]; Human alphaherpesvirus 1, HFF): 50 µM; EC50 ([5]; Human alphaherpesvirus 3, HFF): 10 µM; EC90 ([5]; Human alphaherpesvirus 3, HFF): 10 µM; EC50 [2, 25]: 10 µM; EC90 [2, 25]: 10 µM; EC50 [7, 26]: 29.5 µM; EC90 [7, 26]: 50 µM; EC50 ([8]; HFF): 50 µM; EC90 ([8]; HFF): 50 µM; EC50 ([11]; Human alphaherpesvirus 2, HFF): 50 µM; EC90 ([11]; Human alphaherpesvirus 2, HFF): 50 µM
13 | CCN1CCC(Nc2cc3c4ccc(F)cc4nn3cn2)CC1 [VKT-025] | 48.1 | 10 | 10 |  |  |  |  |  |  |  |  |  |  |  |  |  |  |  | 
14 | CN(C)CC(=O)N1CCC(Nc2cc3c4ccc(F)cc4nn3cn2)CC1 [VKT-028] | 32 | 10 | 10 |  |  |  |  |  |  |  |  |  |  |  |  |  |  |  | 
15 | CNC(=O)CN1CCC(Nc2cc3c4ccc(F)cc4nn3cn2)CC1 [VKT-031] | 50 | 50 | 50 |  |  |  |  |  |  |  |  |  |  |  |  |  |  |  | 
16 | OCCC1CCC(Nc2cc3c4ccc(F)cc4nn3cn2)CC1 (stereo not drawn) [VKT-032] |  |  |  |  |  |  |  |  |  |  |  |  |  |  |  |  |  |  | CC50 ([1]; HCMV primary assay, HFF cells, read-out: CC50): 26.2 µM; EC50 [2, 25]: 10 µM; EC90 [2, 25]: 10 µM
17 | CC(C)(C)OC(=O)N[C@H]1CCC(Nc2cc3c4ccc(F)cc4nn3cn2)C1 (stereo partly drawn) [VKT-035] | 8.14 | 2 | 2 | 15.9 | 10 | 10 | 2 | 2 | 17.5 | 10 | 10 | 10 | 10 | 17.7 | 31.9 | 10 | 10 | 7.6 | 
18 | Fc1ccc2c(c1)nn1cnc(NC3CCNCC3)cc21 [VKT-319, 7-fluoro-N-(piperidin-4-yl)pyrimido[1,6-b]indazol-3-amine] | 37.5 | 10 | 10 |  |  |  |  |  |  |  |  |  |  |  |  |  |  |  | 
